The data set is described as follows: Pharmacokinetics after single inhaled dose (LC-MS/MS). It is filed as in vivo, human. On the procedure: Blood samples were obtained at 1; 2; 4; 7; 10; 15; 20; 30; 45 min and 1; 1.5; 2; 3; 4 hours after administration.
PK parameters were generated by algebraic analysis of the concentration versus time plots for each individual. The analysis was carried out using the software Phoenix WinNonlin 6.3.

For the compound `CN(C)CCc1c[nH]c2ccc(O)cc12` [bufotenine], the “Samples with bufotenine concentration above LLOQ” value (after inhaled 5-MeO-DMT, LLOQ 25 pg/ml) is “Only in few samples”. Also, the “Bufotenine blood concentrations under uptitration scheme vs single dose” value (subjects receiving an uptitration scheme included) is “Substantially similar observations”.

The values are drawn from patent US20250213532A1, “5-METHOXY-N,N-[…][…] THE TREATMENT OF BIPOLAR DISORDER” (GH RESEARCH IRELAND LIMITED, priority 2022, published 2025).
